# In patent US20260272865A1, “HYDROXYPHENYL PROPANOATE COMPOUNDS FOR TUMOUR IMMUNOTHERAPY, COMPOSITIONS AND USES THEREOF” (UTI LIMITED PARTNERSHIP, priority 2023, published 2026):
# Columns and labels:
# [1] = test system: M3-9-M^OVA tumours; assay: Orthotopic M3-9-M^OVA rhabdomyosarcoma in IMDM-CR mice: immune surveillance, overall survival; assay type: in vivo, mouse
# [2] = test system: B16.F10 melanoma tumours; assay: Subcutaneous B16.F10 melanoma in IMDM-CR mice: overall survival; assay type: in vivo, mouse
# [3] = biological target: T1, GSDMD (Homo sapiens, UniProt P57764); assay: Western blot of GSDMD cleavage in THP-1 cells; assay type: cell-based
# T1 construct: host or cells: THP1-Dual cells (human monocytic reporter line)
# T1 sequence (P57764 1-484): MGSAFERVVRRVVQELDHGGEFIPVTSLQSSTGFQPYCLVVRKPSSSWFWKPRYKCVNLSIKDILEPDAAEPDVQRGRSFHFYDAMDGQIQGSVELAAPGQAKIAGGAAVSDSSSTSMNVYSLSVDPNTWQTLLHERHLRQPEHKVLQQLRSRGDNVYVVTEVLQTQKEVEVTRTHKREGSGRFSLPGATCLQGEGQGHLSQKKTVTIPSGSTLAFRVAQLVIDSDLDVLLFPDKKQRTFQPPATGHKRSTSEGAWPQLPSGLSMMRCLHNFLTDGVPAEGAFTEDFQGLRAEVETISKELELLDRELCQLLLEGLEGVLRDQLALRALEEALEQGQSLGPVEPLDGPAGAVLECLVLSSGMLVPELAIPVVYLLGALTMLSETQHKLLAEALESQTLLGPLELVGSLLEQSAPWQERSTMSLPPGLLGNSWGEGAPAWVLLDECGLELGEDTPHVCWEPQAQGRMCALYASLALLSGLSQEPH
# Protocol: Cells were collected and lysates prepared using total lysis buffer (50 mM Tris-HCl, pH 8.0; 150 mM NaCl; 1% Triton X-100; 1% SDS). The supernatant was obtained by centrifuging at 10,000 RPM for 10 minutes at 4° C. using a benchtop PCR centrifuge. Protein quantification was performed using the Bio-Rad DC Protein Assay Kit (Bio-Rad, NC, USA). Proteins were separated using 12% SDS-PAGE gels and transferred to a PVDF membrane using the Bio-Rad Trans-turbo semi-dry transfer apparatus at 25 V/1 A for 1 hour. The membrane was blocked with Tris-buffered-saline-Tween-20™ (TBST) containing 5% skim milk for 30 minutes at room temperature. The membrane was then probed overnight at 4° C. with rabbit monoclonal recombinant anti-GSDMD antibody (ab210070, Abcam), anti-cleaved N-terminal GSDMD antibody (ab215203, Abcam) and mouse anti-actin monoclonal antibody (MAB1501, MilliporeSigma) for human FL-GSDMD, CL-GSDMD and actin. The next day, the membranes were washed with TBST three times and probed with goat anti-rabbit (1706515, Bio-Rad) or goat anti-mouse (1706516, Bio-Rad) horseradish peroxidase-conjugated IgG for 1 hour at room temperature. The secondary antibodies were diluted in TBST containing 5% (w/v) skim milk at 1:5000 and the membranes washed with TBST before detecting the proteins of interest using the Clarity™ Western ECL Substrate (Bio-Rad) on a Chemidoc-IT Imager (UVP, Upland, CA, USA).
# [4] = test system: M3-9-M tumours; assay: Orthotopic M3-9-M rhabdomyosarcoma: tumour immune surveillance, growth, overall survival
# Protocol: Tumour cells were orthotopically implanted into 6-8 week old mice. […] For experiments with rhabdomyosarcoma models, mice were orthotopically implanted with 1.5×10^5 M3-9-M or M3-9-M^OVA cells in 50 μL of PBS into the right-behind leg gastrocnemius muscle using an insulin syringe. RMS tumour volume was calculated by subtracting the volume of the gastrocnemius muscle before tumour implantation from the volume after tumour implantation (length×width×height). […] Tumour measurements were taken twice weekly using skin calipers, from implantation day to either experimental or humane endpoints.
# Metabolite compounds were obtained from Sigma-Aldrich and prepared into metabolite stock solutions by dissolving them into UltraPure™ DNase/RNase-Free Distilled Water (Invitrogen™) with 1.0N NaOH (Sigma). The pH of the stock solutions was adjusted to 7.4-7.6 and determination of the endotoxin level of the solutions was completed through a limulus amebocyte lysate (LAL) test. […] To test the metabolite effects on anti-tumour immunity, 100 μL of the metabolite at 83 mg/kg bodyweight per mouse was administered intraperitoneally every 48 hours for seven doses. […] Three doses of 250 μg of either anti-PD-1 or anti-PD-L1 were administered intraperitoneally post tumour implantation on day 10, 13 and 16. To neutralize CD8 T cell in mice, anti-CD8 (clone 2.43; BioXcell) monoclonal antibody was used. 250 μg of anti-CD8 antibody in PBS per mouse was injected intraperitoneally 7 and 1 day before tumour implantation, followed by administering 100 μg of anti-CD8 in PBS into the mice on day 3, 7, and 10.
smiles,measurement,setting,value
"O=C(O)CCc1ccccc1O [Compound I-1, 3-(2-hydroxyphenyl)propanoic acid]","overall survival, treatment initiated seven days after implantation","[1]; IMDM-CR mice, M3-9-M^OVA, treatment started 7 days after implantation",still effective
same,immune surveillance of M3-9-M^OVA tumours (overall survival),"[1]; male IMDM-CR mice, i.p. treatment from day 1 post-implantation",enhance the immune surveillance
same,"overall survival, treatment initiated seven days after implantation","[2]; IMDM-CR mice, B16.F10, treatment started 7 days after implantation",still effective
same,"overall survival, combination with anti-PD-L1 vs anti-PD-L1 alone","[2]; female IMDM-CR mice, B16.F10 tumours, 3,2-HPP i.p. plus anti-PD-L1",further improvement
same,overall survival / immune surveillance of B16.F10 melanoma,"[2]; female IMDM-CR mice, i.p. treatment from day 1",increased the overall survival
same,GSDMD cleavage in the presence of LPS or LPS+NG stimulation,[3],facilitating gasdermin D cleavage
same,"overall survival, combination with ABX vs either treatment alone","[4]; female IMDM-CR mice, M3-9-M tumours, ABX plus 3,2-HPP",even higher overall survival
same,"overall survival, combination with anti-PD-1 vs anti-PD-1 alone","[4]; female IMDM-CR mice, M3-9-M tumours, 3,2-HPP i.p. plus anti-PD-1",further improvement
same,efficacy of treatment after depletion of CD8 T cells,"[4]; female IMDM-CR mice, M3-9-M, anti-CD8 neutralizing antibody (clone 2.43)",abrogated the efficacy
same,immune surveillance of M3-9-M tumours (overall survival),"[4]; female IMDM-CR mice, i.p. treatment from day 1 post-implantation vs vehicle",enhance the immune surveillance
same,effect on ABX-reduced immune surveillance,"[4]; female IMDM-JAX mice on ABX-supplemented drinking water, M3-9-M tumours",counteracted the negative effect of ABX
same,overall survival,"[4]; female IMDM-JAX mice, M3-9-M tumours, i.p. 3,2-HPP",increased the overall survival
same,response of non-immunogenic M3-9-M tumours to treatment,"[4]; male IMDM-CR mice, i.p. treatment from day 1",did not respond
